Tests used:
Experiment in all cases: relative viability (nuclei count vs DMSO), 5 days (fraction); higher = more cells survive
Venetoclax + Bortezomib = compound: CC1(C)CCC(CN2CCN(c3ccc(C(=O)NS(=O)(=O)c4ccc(NCC5CCOCC5)c([N+](=O)[O-])c4)c(Oc4cnc5[nH]ccc5c4)c3)CC2)=C(c2ccc(Cl)cc2)C1 [Venetoclax] + CC(C)C[C@H](NC(=O)[C@H](Cc1ccccc1)NC(=O)c1cnccn1)B(O)O [Bortezomib] (partner 0.002 µM)
How it was run: (§1)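 Five library-drug doses in √10 steps were combined with a fixed anchor-drug dose, or a single drug was given alone, by pin tool to lung cancer cell lines in 1536-well plates the day after seeding. Nuclei were stained and counted after 5 days. Relative viability is the nuclei count in treated wells over that in vehicle wells, taken as the median of duplicate plates.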

Venetoclax + Navitoclax = compound: CC1(C)CCC(CN2CCN(c3ccc(C(=O)NS(=O)(=O)c4ccc(NCC5CCOCC5)c([N+](=O)[O-])c4)c(Oc4cnc5[nH]ccc5c4)c3)CC2)=C(c2ccc(Cl)cc2)C1 [Venetoclax] + CC1(C)CCC(c2ccc(Cl)cc2)=C(CN2CCN(c3ccc(C(=O)NS(=O)(=O)c4ccc(N[C@H](CCN5CCOCC5)CSc5ccccc5)c(S(=O)(=O)C(F)(F)F)c4)cc3)CC2)C1 [Navitoclax] (partner 0.5 µM)
How it was run: as §1

Venetoclax + Pemetrexed = compound: CC1(C)CCC(CN2CCN(c3ccc(C(=O)NS(=O)(=O)c4ccc(NCC5CCOCC5)c([N+](=O)[O-])c4)c(Oc4cnc5[nH]ccc5c4)c3)CC2)=C(c2ccc(Cl)cc2)C1 [Venetoclax] + Nc1nc2[nH]cc(CCc3ccc(C(=O)N[C@@H](CCC(=O)O)C(=O)O)cc3)c2c(=O)[nH]1 [Pemetrexed] (partner 0.2 µM)
How it was run: as §1

Selumetinib + Phenformin = compound: Cn1cnc2c(F)c(Nc3ccc(Br)cc3Cl)c(C(=O)NOCCO)cc21 [Selumetinib] + N=C(N)NC(=N)NCCc1ccccc1 [Phenformin] (partner 250 µM)
How it was run: as §1

Row | Cell Line | relative viability (Venetoclax + Bortezomib; first compound 0.01 µM) | relative viability (Venetoclax + Bortezomib; first compound 0.03162 µM) | relative viability (Venetoclax + Bortezomib; first compound 0.1 µM) | relative viability (Venetoclax + Bortezomib; first compound 0.3162 µM) | relative viability (Venetoclax + Bortezomib; first compound 1 µM) | relative viability (Venetoclax + Navitoclax; first compound 0.01 µM) | relative viability (Venetoclax + Navitoclax; first compound 0.03162 µM) | relative viability (Venetoclax + Navitoclax; first compound 0.1 µM) | relative viability (Venetoclax + Navitoclax; first compound 0.3162 µM) | relative viability (Venetoclax + Navitoclax; first compound 1 µM) | relative viability (Venetoclax + Pemetrexed; first compound 0.01 µM) | relative viability (Venetoclax + Pemetrexed; first compound 0.03162 µM) | relative viability (Venetoclax + Pemetrexed; first compound 0.1 µM) | relative viability (Venetoclax + Pemetrexed; first compound 0.3162 µM) | relative viability (Venetoclax + Pemetrexed; first compound 1 µM) | relative viability (Selumetinib + Phenformin; first compound 0.02 µM) | relative viability (Selumetinib + Phenformin; first compound 0.06325 µM) | relative viability (Selumetinib + Phenformin; first compound 0.2 µM) | relative viability (Selumetinib + Phenformin; first compound 0.6325 µM)
1 | HCC-78 | 0.523 | 0.583 | 0.482 | 0.525 | 0.477 | 0.97 | 0.895 | 0.688 | 0.755 | 0.84 | 0.896 | 0.875 | 0.965 | 0.935 | 0.881 | 0.667 | 0.74 | 0.601 | 0.677
2 | HCC-366 | 0.854 | 1.05 | 1.01 | 0.994 | 0.984 | 1.04 | 1 | 1.01 | 0.987 | 0.993 | 0.16 | 0.16 | 0.172 | 0.186 | 0.197 | 0.594 | 0.607 | 0.512 | 0.361
3 | HCC-827 | 1.04 | 1.06 | 1.08 | 1.11 | 1.01 | 1.02 | 0.996 | 1.04 | 1.04 | 1.01 | 0.239 | 0.289 | 0.25 | 0.269 | 0.28 | 0.4 | 0.4 | 0.42 | 0.409
4 | HOP-62 | 0.886 | 1.17 | 0.746 | 0.665 | 0.625 | 0.988 | 1.17 | 1.09 | 1.13 | 1 | 0.356 | 0.335 | 0.287 | 0.313 | 0.355 | 0.753 | 0.657 | 0.624 | 0.465
5 | IA-LM | 0.745 | 0.701 | 0.959 | 0.698 | 0.823 | 0.84 | 0.899 | 0.807 | 0.763 | 0.662 |  |  |  |  |  |  |  |  | 
6 | LCLC-103H | 1.02 | 1.04 | 1.16 | 1.09 | 1.1 |  |  |  |  |  | 0.447 | 0.432 | 0.448 | 0.43 | 0.447 | 0.329 | 0.326 | 0.293 | 0.337
7 | LK-2 |  |  |  |  |  | 0.809 | 0.945 | 0.763 | 0.816 | 0.845 | 0.331 | 0.381 | 0.255 | 0.249 | 0.227 | 0.561 | 0.576 | 0.539 | 0.477
8 | NCI-H358 |  |  |  |  |  |  |  |  |  |  | 0.176 | 0.176 | 0.187 | 0.178 | 0.179 | 0.211 | 0.175 | 0.183 | 0.158
9 | NCI-H522 |  |  |  |  |  |  |  |  |  |  | 1.13 | 1.01 | 0.879 | 1.19 | 0.759 | 0.641 | 0.556 | 0.635 | 0.609
10 | NCI-H650 | 0.671 | 0.792 |  | 0.873 | 0.817 |  |  |  |  |  | 0.911 | 1.02 | 1.03 | 0.89 | 0.836 | 0.521 | 0.407 | 0.551 | 0.54
11 | NCI-H661 | 0.722 | 0.762 | 0.717 | 0.799 | 0.646 |  |  |  |  |  | 0.933 | 0.922 | 0.861 | 0.897 | 0.901 | 0.261 | 0.291 | 0.272 | 0.246
12 | NCI-H727 | 0.938 | 1.19 | 0.833 | 0.862 | 0.888 | 0.375 | 0.462 | 0.36 | 0.323 | 0.516 |  |  |  |  |  | 0.455 | 0.381 | 0.375 | 0.355
13 | NCI-H1299 | 1.05 | 1.02 | 0.979 | 0.999 | 0.98 | 1.07 | 1.04 | 1.01 | 1.01 | 1 |  |  |  |  |  |  |  |  | 
14 | NCI-H1395 |  |  |  |  |  | 1.15 | 1.12 | 1.16 | 1.13 | 1.55 | 0.823 | 0.862 | 0.764 | 0.95 | 0.819 | 0.447 | 0.42 | 0.456 | 0.475
15 | NCI-H1563 | 0.792 | 0.896 | 0.827 | 0.944 | 0.78 |  |  |  |  |  | 0.847 | 0.902 | 0.798 | 0.744 | 0.888 | 0.688 | 0.68 | 0.627 | 0.593
16 | NCI-H1623 |  |  |  |  |  |  |  |  |  |  |  |  |  |  |  | 0.54 | 0.503 | 0.483 | 0.487
17 | NCI-H1648 |  |  |  |  |  |  |  |  |  |  |  | 0.774 | 0.64 | 0.626 | 0.718 |  |  |  | 
18 | NCI-H1703 | 0.306 | 0.313 | 0.21 | 0.397 | 0.374 | 1.33 | 1.24 | 0.969 | 1.01 | 1.04 |  |  |  |  |  |  |  |  | 
19 | NCI-H1793 |  |  |  |  |  | 0.375 | 0.454 | 0.287 | 0.461 | 0.382 | 0.944 | 0.976 | 0.732 | 0.799 | 0.713 | 0.364 | 0.349 | 0.316 | 0.273
20 | NCI-H1944 |  |  |  |  |  | 1.03 | 1.09 | 0.99 | 1.06 | 1.09 | 0.669 | 0.592 | 0.571 | 0.607 | 0.589 | 0.192 | 0.195 | 0.157 | 0.168
21 | NCI-H2170 |  |  |  |  |  | 0.746 | 0.688 | 0.521 | 0.509 | 0.531 | 0.25 | 0.278 | 0.259 | 0.259 | 0.253 | 0.408 | 0.395 | 0.386 | 0.326
22 | NCI-H2342 |  |  |  |  |  |  |  |  |  |  | 0.872 | 0.784 | 0.747 | 0.738 | 0.717 | 0.623 | 0.618 | 0.564 | 0.722
23 | SK-MES-1 |  |  |  |  |  | 1.25 | 1.16 | 1.2 | 1.25 | 1.09 | 0.918 | 1.08 | 0.994 | 0.956 | 0.754 | 0.667 | 0.599 | 0.637 | 0.462
24 | SW 900 |  |  |  |  |  |  |  |  |  |  | 0.478 | 0.51 | 0.465 | 0.499 | 0.489 | 0.603 | 0.573 | 0.416 | 0.569

Reference: the supplement of paper PMC10307832
